Data taken from PubChem BioAssay (NCI).
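How tested: cells in 96-well plates exposed to compound for 48 hours at five concentrations. Here, GI50 denotes the concentration required for 50% inhibition of growth. TGI denotes the concentration required for complete inhibition of growth.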 Where a SMILES comes first, the peptide text is derived from it. [ ]: non-standard residue; d: D form. The star is where a group is joined. mTyr = N[CH](Cc1cccc(O)c1)C(=O)O; Cbz = O=C(OCc1ccccc1)*; OBn = c1ccc(CO*)cc1

Key:
Assay in all cases: DTP human tumour cell line panel, 48 h; in the data active = GI50 below about 0.43 µM; inactive = the rest
CCRF-CEM leukemia = system: CCRF-CEM leukemia
DU-145 prostate = system: DU-145 prostate
HOP-92 NSCLC = system: HOP-92 NSCLC
IGROV1 ovarian = system: IGROV1 ovarian
K-562 leukemia = system: K-562 leukemia
KM12 colon = system: KM12 colon
M14 melanoma = system: M14 melanoma
NCI-H226 lung = system: NCI-H226 lung
PC-3 prostate = system: PC-3 prostate
SF-295 CNS = system: SF-295 CNS
MDA-N = system: MDA-N

CC1OC(O[C@H]2/C=C/C=C/C=C/C=C/C=C/C=C/C=C/[C@H](C)[C@@H](O)[C@@H](C)[C@H](C)OC(=O)CC(O)CC(O)CCC(O)C(O)CC(O)C[C@]3(O)C[C@H](O)C(C(=O)O)C(C2)O3)C(O)[C@H](N)C1O (some centres not stated)
4.73 µM: TGI (IGROV1 ovarian)
20.2 µM: TGI (KM12 colon)
4.31 µM: TGI (NCI-H226 lung)
38 µM: TGI (SF-295 CNS)
> 100 µM: TGI (CCRF-CEM leukemia) | TGI (K-562 leukemia)
15.6 µM: TGI (HOP-92 NSCLC)
5.96 µM: TGI (M14 melanoma)
inactive: GI50 (DU-145 prostate) 2.8 µM | GI50 (HOP-92 NSCLC) 3.16 µM | GI50 (IGROV1 ovarian) 2.31 µM | GI50 (K-562 leukemia) 30.1 µM | GI50 (KM12 colon) 6.16 µM | GI50 (M14 melanoma) 2.57 µM | GI50 (NCI-H226 lung) 2 µM | GI50 (PC-3 prostate) 1.81 µM | GI50 (SF-295 CNS) 18.6 µM
7.22 µM: TGI (DU-145 prostate)
3.92 µM: TGI (PC-3 prostate)

O=C(CC(=O)Nc1ccccc1)N/N=C/c1cc(N=Nc2ccc(Br)cc2)ccc1O
> 10 µM: TGI (DU-145 prostate) | TGI (HOP-92 NSCLC) | TGI (IGROV1 ovarian) | TGI (K-562 leukemia) | TGI (KM12 colon) | TGI (M14 melanoma) | TGI (MDA-N)
5.3 µM: TGI (CCRF-CEM leukemia)

Cc1ccc(N=Nc2c(O)c(C(=O)Nc3ccccc3)cc3ccccc23)c([N+](=O)[O-])c1
> 100 µM: TGI (CCRF-CEM leukemia) | TGI (DU-145 prostate) | TGI (HOP-92 NSCLC) | TGI (IGROV1 ovarian) | TGI (K-562 leukemia) | TGI (KM12 colon) | TGI (M14 melanoma) | TGI (MDA-N) | TGI (PC-3 prostate) | TGI (SF-295 CNS)

CCC[C@H](C)C[C@H](C)C[C@H](C)/C=C(\C)[C@@H](O)[C@@H](C)C(=O)CC
36.2 µM: TGI (IGROV1 ovarian)
52.8 µM: TGI (CCRF-CEM leukemia)
38.3 µM: TGI (HOP-92 NSCLC)
35.7 µM: TGI (M14 melanoma)
42.6 µM: TGI (NCI-H226 lung)
43.4 µM: TGI (DU-145 prostate)
38 µM: TGI (K-562 leukemia)
37.2 µM: TGI (PC-3 prostate)
37.9 µM: TGI (SF-295 CNS)
42 µM: TGI (KM12 colon)

CNc1ccc(N)cc1C(=O)N1CCC[C@H]1CO
> 100 µM: TGI (CCRF-CEM leukemia) | TGI (DU-145 prostate) | TGI (IGROV1 ovarian) | TGI (KM12 colon) | TGI (M14 melanoma) | TGI (MDA-N) | TGI (NCI-H226 lung) | TGI (PC-3 prostate) | TGI (SF-295 CNS)

CCC1(COC(NC(=O)c2ccccc2)(C(F)(F)F)C(F)(F)F)COC1
> 100 µM: TGI (CCRF-CEM leukemia) | TGI (IGROV1 ovarian) | TGI (K-562 leukemia) | TGI (M14 melanoma) | TGI (MDA-N) | TGI (PC-3 prostate)

FC(F)(F)c1ccc2nc(Sc3ccccn3)cnc2c1
> 100 µM: TGI (CCRF-CEM leukemia) | TGI (DU-145 prostate) | TGI (HOP-92 NSCLC) | TGI (IGROV1 ovarian) | TGI (K-562 leukemia) | TGI (KM12 colon) | TGI (M14 melanoma) | TGI (MDA-N) | TGI (SF-295 CNS)
60.2 µM: TGI (NCI-H226 lung)

Nc1ccc(CCN2CCN(CCCc3ccccc3)CC2)cc1
> 100 µM: TGI (CCRF-CEM leukemia) | TGI (DU-145 prostate) | TGI (IGROV1 ovarian) | TGI (K-562 leukemia) | TGI (KM12 colon) | TGI (M14 melanoma) | TGI (MDA-N) | TGI (NCI-H226 lung) | TGI (PC-3 prostate) | TGI (SF-295 CNS)

COC(=O)C(Cc1cccc(O)c1)NC(=O)C(CC(=O)OCc1ccccc1)NC(=O)OCc1ccccc1 (configuration not stated) (Cbz-Asp(OBn)-[mTyr]-OMe; configuration not given here)
> 100 µM: TGI (HOP-92 NSCLC) | TGI (IGROV1 ovarian) | TGI (K-562 leukemia) | TGI (KM12 colon) | TGI (M14 melanoma) | TGI (MDA-N) | TGI (NCI-H226 lung) | TGI (PC-3 prostate)

COc1ccc2oc(=N)c(C(=O)Nc3ccccn3)cc2c1
> 100 µM: TGI (CCRF-CEM leukemia) | TGI (DU-145 prostate) | TGI (HOP-92 NSCLC) | TGI (IGROV1 ovarian) | TGI (K-562 leukemia) | TGI (KM12 colon) | TGI (M14 melanoma) | TGI (NCI-H226 lung) | TGI (PC-3 prostate)

CN(C)CCCN1c2ccccc2CCc2ccc([N+](=O)[O-])cc21
> 100 µM: TGI (CCRF-CEM leukemia) | TGI (K-562 leukemia) | TGI (PC-3 prostate)
90.4 µM: TGI (NCI-H226 lung)
33.8 µM: TGI (KM12 colon)
38.6 µM: TGI (DU-145 prostate)
34.3 µM: TGI (SF-295 CNS)
31 µM: TGI (IGROV1 ovarian)
40.9 µM: TGI (MDA-N)
30.6 µM: TGI (M14 melanoma)

COc1ccc(N=C2C(=Nc3ccc(OC)cc3)N(c3ccccc3)C(=S)N2N=C=C2Sc3ccccc3N2C)cc1
> 100 µM: TGI (DU-145 prostate) | TGI (HOP-92 NSCLC) | TGI (IGROV1 ovarian) | TGI (K-562 leukemia) | TGI (KM12 colon) | TGI (M14 melanoma) | TGI (MDA-N) | TGI (NCI-H226 lung) | TGI (PC-3 prostate) | TGI (SF-295 CNS)

CCCc1ccc(NCc2cc(OC)c(OC)c(OC)c2)cc1
75.8 µM: TGI (HOP-92 NSCLC)
49 µM: TGI (CCRF-CEM leukemia)
> 100 µM: TGI (IGROV1 ovarian)
51.6 µM: TGI (K-562 leukemia)
55.2 µM: TGI (KM12 colon)

CC(C)(C)OC(=O)NCCC1CN(C(=O)c2ccccc2)c2ccccc21 (configuration not stated)
94.6 µM: TGI (HOP-92 NSCLC)
> 100 µM: TGI (DU-145 prostate) | TGI (IGROV1 ovarian) | TGI (K-562 leukemia) | TGI (KM12 colon) | TGI (PC-3 prostate) | TGI (SF-295 CNS)
33.6 µM: TGI (M14 melanoma)
48.4 µM: TGI (MDA-N)

CC(NC(C)(C)C)C(=O)c1cccc(Cl)c1 (configuration not stated)
> 100 µM: TGI (CCRF-CEM leukemia) | TGI (IGROV1 ovarian) | TGI (K-562 leukemia) | TGI (KM12 colon) | TGI (M14 melanoma) | TGI (SF-295 CNS)

CC(C)=C/C=C1/CS(=O)(=O)C=C1C
> 100 µM: TGI (CCRF-CEM leukemia) | TGI (DU-145 prostate) | TGI (IGROV1 ovarian) | TGI (K-562 leukemia) | TGI (KM12 colon) | TGI (M14 melanoma) | TGI (MDA-N) | TGI (NCI-H226 lung) | TGI (PC-3 prostate) | TGI (SF-295 CNS)

COc1ccc(CSc2ccccc2Cn2cccc2)cc1OC
> 100 µM: TGI (CCRF-CEM leukemia) | TGI (DU-145 prostate) | TGI (IGROV1 ovarian) | TGI (K-562 leukemia) | TGI (KM12 colon) | TGI (MDA-N) | TGI (NCI-H226 lung) | TGI (SF-295 CNS)

CCN(CC)CCNCc1cc(Cl)cc2c1OCOC2
> 10 µM: TGI (CCRF-CEM leukemia) | TGI (DU-145 prostate) | TGI (IGROV1 ovarian) | TGI (K-562 leukemia) | TGI (KM12 colon) | TGI (M14 melanoma) | TGI (MDA-N) | TGI (NCI-H226 lung) | TGI (PC-3 prostate) | TGI (SF-295 CNS)

O=C1NC(=S)N(c2ccccc2)C1=O
> 100 µM: TGI (CCRF-CEM leukemia) | TGI (DU-145 prostate) | TGI (HOP-92 NSCLC) | TGI (IGROV1 ovarian) | TGI (K-562 leukemia) | TGI (KM12 colon) | TGI (NCI-H226 lung) | TGI (PC-3 prostate) | TGI (SF-295 CNS)

COc1ccc(/C=C2\CN(C)C/C(=C\c3ccc(OC)c(OC)c3OC)C2=O)c(OC)c1OC
1.01 µM: TGI (SF-295 CNS)
1.73 µM: TGI (HOP-92 NSCLC)
0.0805 µM: TGI (CCRF-CEM leukemia)
1.43 µM: TGI (PC-3 prostate)
1.39 µM: TGI (DU-145 prostate)
2.49 µM: TGI (NCI-H226 lung)
1.25 µM: TGI (MDA-N)
0.283 µM: TGI (M14 melanoma)
1.07 µM: TGI (IGROV1 ovarian)

O=C(/C=C/c1csc(-c2ccccc2)n1)NCc1ccc(C(=O)NCc2ccccc2)cc1
> 100 µM: TGI (CCRF-CEM leukemia) | TGI (DU-145 prostate) | TGI (HOP-92 NSCLC) | TGI (IGROV1 ovarian) | TGI (K-562 leukemia) | TGI (KM12 colon) | TGI (M14 melanoma) | TGI (NCI-H226 lung) | TGI (PC-3 prostate) | TGI (SF-295 CNS)

COc1cc(/C=C(/C#N)C(N)=O)ccc1O
> 100 µM: TGI (CCRF-CEM leukemia) | TGI (HOP-92 NSCLC) | TGI (IGROV1 ovarian) | TGI (K-562 leukemia) | TGI (KM12 colon) | TGI (NCI-H226 lung) | TGI (SF-295 CNS)
